Literature values, collected in patent publication US7332525B2, “Method of treatment of prostate cancer and composition for treatment thereof” (priority 2003, dated 2008).

Key:
[1] = tested on: metastasized prostate cancer; settings: in vivo
[2] = tested on: metastasized, hormone refractory prostate cancer; settings: high doses of tamoxifen alone; patients with metastasized and hormone refractory prostate cancer

| Structure (SMILES) | effect on the progression of metastasized prostate cancer [1] | effect on prostate cancer cells [2] |
| --- | --- | --- |
| O=C(c1ccc(OCCN2CCCCC2)cc1)c1c(-c2ccc(O)cc2)sc2cc(O)ccc12 [raloxifene, 6-hydroxy-2(4-hydroxyphenyl)-3-[4-(2-piperdinoethoxy)benzoyl]benzo[b]thiophene] | some effect | – |
| CC/C(=C(\c1ccccc1)c1ccc(OCCN(C)C)cc1)c1ccccc1.O=C(O)CC(O)(CC(=O)O)C(=O)O [tamoxifen, (Z)2-[4-(1,2-diphenyl-1-butenyl)phenoxy]-N, N-dimethylethanamine 2-hydroxy-1,2,3-propanetricarboxylate (1:1)] | – | some effect |
| CN(C)CCOc1ccc(C(=C(CCCl)c2ccccc2)c2ccccc2)cc1 [toremifene, 4-chloro-1,2-diphenyl-1-{4-[2-(N,N-dimethylamino)ethoxy]-phenyl}-1-butene] | some effect | – |
